Data reported in ChEMBL document CHEMBL4507317, “Data for DCP probe BAY-899” (2021).

Legend:
[1] = target: Serine/threonine-protein kinase Nek6 (Homo sapiens) (UniProt Q9HC98); settings: Compound concentration 1000.0 nM
[2] = target: Histamine H1 receptor (Homo sapiens) (UniProt P35367); settings: Compound concentration 10.0 uM
[3] = target: Peripheral plasma membrane protein CASK (Homo sapiens) (UniProt O14936); settings: Compound concentration 1000.0 nM
[4] = target: Ribosomal protein S6 kinase alpha-3 (Homo sapiens) (UniProt P51812); settings: Compound concentration 1000.0 nM
[5] = target: Phosphatidylinositol 3-kinase catalytic subunit type 3 (Homo sapiens) (UniProt Q8NEB9); settings: Compound concentration 1000.0 nM
[6] = target: Mitogen-activated protein kinase 10 (Homo sapiens) (UniProt P53779); settings: Compound concentration 1000.0 nM
[7] = target: Interleukin-1 receptor-associated kinase 3 (Homo sapiens) (UniProt Q9Y616); settings: Compound concentration 1000.0 nM
[8] = target: Mitogen-activated protein kinase 6 (Homo sapiens) (UniProt Q16659); settings: Compound concentration 1000.0 nM
[9] = target: T1, Muscarinic acetylcholine receptor M1 (Homo sapiens) (UniProt P11229); settings: Compound concentration 10.0 uM
T1 sequence (whole entry): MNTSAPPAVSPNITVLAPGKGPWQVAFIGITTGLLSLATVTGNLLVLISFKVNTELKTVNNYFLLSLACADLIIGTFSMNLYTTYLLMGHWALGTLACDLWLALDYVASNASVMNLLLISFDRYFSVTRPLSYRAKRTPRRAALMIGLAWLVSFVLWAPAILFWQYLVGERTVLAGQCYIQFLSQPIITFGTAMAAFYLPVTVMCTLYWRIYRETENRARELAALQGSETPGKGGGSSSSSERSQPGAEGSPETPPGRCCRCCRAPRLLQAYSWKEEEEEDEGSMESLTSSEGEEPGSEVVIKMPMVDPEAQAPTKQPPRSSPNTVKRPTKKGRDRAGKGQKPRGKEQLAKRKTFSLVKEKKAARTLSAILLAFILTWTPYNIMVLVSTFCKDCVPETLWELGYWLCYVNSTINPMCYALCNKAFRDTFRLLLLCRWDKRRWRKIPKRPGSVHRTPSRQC

[10] = target: Microtubule-associated serine/threonine-protein kinase 1 (Homo sapiens) (UniProt Q9Y2H9); settings: Compound concentration 1000.0 nM
Sequence of Microtubule-associated serine/threonine-protein kinase 1 (Homo sapiens) (Q9Y2H9 whole entry, looked up): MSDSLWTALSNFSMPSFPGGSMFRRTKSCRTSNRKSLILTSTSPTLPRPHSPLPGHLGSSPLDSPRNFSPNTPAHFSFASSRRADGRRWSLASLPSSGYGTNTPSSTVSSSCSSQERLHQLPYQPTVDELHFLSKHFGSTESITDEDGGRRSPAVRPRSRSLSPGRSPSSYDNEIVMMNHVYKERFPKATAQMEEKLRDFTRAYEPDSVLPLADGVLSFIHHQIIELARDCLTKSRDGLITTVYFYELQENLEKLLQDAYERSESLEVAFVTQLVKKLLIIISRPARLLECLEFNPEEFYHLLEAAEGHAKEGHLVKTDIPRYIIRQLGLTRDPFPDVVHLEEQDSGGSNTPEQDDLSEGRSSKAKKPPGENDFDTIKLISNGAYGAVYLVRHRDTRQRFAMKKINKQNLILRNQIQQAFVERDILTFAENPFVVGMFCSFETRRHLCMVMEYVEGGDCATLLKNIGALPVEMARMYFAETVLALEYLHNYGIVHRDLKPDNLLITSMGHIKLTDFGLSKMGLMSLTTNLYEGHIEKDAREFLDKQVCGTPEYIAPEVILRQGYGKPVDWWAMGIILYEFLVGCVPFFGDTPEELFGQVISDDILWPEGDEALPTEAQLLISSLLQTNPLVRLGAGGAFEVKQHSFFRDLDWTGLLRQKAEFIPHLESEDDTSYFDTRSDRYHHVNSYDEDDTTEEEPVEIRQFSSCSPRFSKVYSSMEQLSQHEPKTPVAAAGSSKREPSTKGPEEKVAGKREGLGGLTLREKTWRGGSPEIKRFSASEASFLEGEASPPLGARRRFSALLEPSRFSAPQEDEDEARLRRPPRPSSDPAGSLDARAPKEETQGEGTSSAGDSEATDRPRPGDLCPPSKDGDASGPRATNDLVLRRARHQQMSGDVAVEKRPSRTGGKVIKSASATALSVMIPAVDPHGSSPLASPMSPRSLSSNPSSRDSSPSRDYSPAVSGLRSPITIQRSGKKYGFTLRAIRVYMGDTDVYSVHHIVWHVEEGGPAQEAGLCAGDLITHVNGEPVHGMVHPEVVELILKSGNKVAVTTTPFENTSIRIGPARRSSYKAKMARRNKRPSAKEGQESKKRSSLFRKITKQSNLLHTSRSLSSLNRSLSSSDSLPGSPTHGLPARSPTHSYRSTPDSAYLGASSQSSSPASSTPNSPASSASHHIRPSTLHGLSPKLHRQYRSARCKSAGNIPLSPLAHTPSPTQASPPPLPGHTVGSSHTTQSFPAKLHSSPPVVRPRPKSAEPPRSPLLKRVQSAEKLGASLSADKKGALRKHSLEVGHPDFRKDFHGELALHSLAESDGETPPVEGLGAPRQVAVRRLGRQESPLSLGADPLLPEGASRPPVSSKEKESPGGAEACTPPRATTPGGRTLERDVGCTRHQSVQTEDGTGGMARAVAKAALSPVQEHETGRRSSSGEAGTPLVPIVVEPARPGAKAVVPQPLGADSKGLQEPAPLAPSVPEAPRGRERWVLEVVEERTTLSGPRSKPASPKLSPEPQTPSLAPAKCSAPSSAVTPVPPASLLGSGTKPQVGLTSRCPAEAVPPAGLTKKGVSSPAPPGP

[11] = target: Mitogen-activated protein kinase 1 (Homo sapiens) (UniProt P28482); settings: Compound concentration 1000.0 nM
[12] = target: Leucine-rich repeat serine/threonine-protein kinase 2 (Homo sapiens) (UniProt Q5S007); settings: Compound concentration 1000.0 nM
[13] = target: Serine/threonine-protein kinase 36 (Homo sapiens) (UniProt Q9NRP7); settings: Compound concentration 1000.0 nM
[14] = target: Casein kinase I isoform gamma-2 (Homo sapiens) (UniProt P78368); settings: Compound concentration 1000.0 nM
[15] = target: Receptor-interacting serine/threonine-protein kinase 1 (Homo sapiens) (UniProt Q13546); settings: Compound concentration 1000.0 nM
[16] = target: Dual specificity mitogen-activated protein kinase kinase 3 (Homo sapiens) (UniProt P46734); settings: Compound concentration 1000.0 nM
[17] = target: Serine/threonine-protein kinase 26 (Homo sapiens) (UniProt Q9P289); settings: Compound concentration 1000.0 nM
[18] = target: Mitogen-activated protein kinase kinase kinase 15 (Homo sapiens) (UniProt Q6ZN16); settings: Compound concentration 1000.0 nM
[19] = target: Histamine H2 receptor (Homo sapiens) (UniProt P25021); settings: Compound concentration 10.0 uM
Sequence of Histamine H2 receptor (Homo sapiens) (P25021 whole entry): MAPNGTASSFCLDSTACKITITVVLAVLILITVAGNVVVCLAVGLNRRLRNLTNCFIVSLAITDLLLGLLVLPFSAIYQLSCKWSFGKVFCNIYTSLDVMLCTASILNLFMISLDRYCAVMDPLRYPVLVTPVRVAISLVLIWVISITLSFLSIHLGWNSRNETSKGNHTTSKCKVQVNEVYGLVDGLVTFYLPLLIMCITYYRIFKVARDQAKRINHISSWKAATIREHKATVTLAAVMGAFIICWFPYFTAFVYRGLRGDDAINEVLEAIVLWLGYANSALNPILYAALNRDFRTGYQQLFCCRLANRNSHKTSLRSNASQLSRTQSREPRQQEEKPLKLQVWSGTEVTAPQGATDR

[20] = target: Ephrin type-B receptor 2 (Homo sapiens) (UniProt P29323); settings: Compound concentration 1000.0 nM
[21] = target: Cyclin-dependent kinase-like 3 (Homo sapiens) (UniProt Q8IVW4); settings: Compound concentration 1000.0 nM
[22] = target: Tyrosine-protein kinase Lyn (Homo sapiens) (UniProt P07948); settings: Compound concentration 1000.0 nM
[23] = target: Phosphatidylinositol 4,5-bisphosphate 3-kinase catalytic subunit beta isoform (Homo sapiens) (UniProt P42338); settings: Compound concentration 1000.0 nM
[24] = target: D(1B) dopamine receptor (Homo sapiens) (UniProt P21918); settings: Compound concentration 10.0 uM
Rattus norvegicus = organism: Rattus norvegicus; settings: Compound concentration 10.0 uM
[25] = target: TRAF2 and NCK-interacting protein kinase (Homo sapiens) (UniProt Q9UKE5); settings: Compound concentration 1000.0 nM
Sequence of TRAF2 and NCK-interacting protein kinase (Homo sapiens) (Q9UKE5 whole entry, looked up): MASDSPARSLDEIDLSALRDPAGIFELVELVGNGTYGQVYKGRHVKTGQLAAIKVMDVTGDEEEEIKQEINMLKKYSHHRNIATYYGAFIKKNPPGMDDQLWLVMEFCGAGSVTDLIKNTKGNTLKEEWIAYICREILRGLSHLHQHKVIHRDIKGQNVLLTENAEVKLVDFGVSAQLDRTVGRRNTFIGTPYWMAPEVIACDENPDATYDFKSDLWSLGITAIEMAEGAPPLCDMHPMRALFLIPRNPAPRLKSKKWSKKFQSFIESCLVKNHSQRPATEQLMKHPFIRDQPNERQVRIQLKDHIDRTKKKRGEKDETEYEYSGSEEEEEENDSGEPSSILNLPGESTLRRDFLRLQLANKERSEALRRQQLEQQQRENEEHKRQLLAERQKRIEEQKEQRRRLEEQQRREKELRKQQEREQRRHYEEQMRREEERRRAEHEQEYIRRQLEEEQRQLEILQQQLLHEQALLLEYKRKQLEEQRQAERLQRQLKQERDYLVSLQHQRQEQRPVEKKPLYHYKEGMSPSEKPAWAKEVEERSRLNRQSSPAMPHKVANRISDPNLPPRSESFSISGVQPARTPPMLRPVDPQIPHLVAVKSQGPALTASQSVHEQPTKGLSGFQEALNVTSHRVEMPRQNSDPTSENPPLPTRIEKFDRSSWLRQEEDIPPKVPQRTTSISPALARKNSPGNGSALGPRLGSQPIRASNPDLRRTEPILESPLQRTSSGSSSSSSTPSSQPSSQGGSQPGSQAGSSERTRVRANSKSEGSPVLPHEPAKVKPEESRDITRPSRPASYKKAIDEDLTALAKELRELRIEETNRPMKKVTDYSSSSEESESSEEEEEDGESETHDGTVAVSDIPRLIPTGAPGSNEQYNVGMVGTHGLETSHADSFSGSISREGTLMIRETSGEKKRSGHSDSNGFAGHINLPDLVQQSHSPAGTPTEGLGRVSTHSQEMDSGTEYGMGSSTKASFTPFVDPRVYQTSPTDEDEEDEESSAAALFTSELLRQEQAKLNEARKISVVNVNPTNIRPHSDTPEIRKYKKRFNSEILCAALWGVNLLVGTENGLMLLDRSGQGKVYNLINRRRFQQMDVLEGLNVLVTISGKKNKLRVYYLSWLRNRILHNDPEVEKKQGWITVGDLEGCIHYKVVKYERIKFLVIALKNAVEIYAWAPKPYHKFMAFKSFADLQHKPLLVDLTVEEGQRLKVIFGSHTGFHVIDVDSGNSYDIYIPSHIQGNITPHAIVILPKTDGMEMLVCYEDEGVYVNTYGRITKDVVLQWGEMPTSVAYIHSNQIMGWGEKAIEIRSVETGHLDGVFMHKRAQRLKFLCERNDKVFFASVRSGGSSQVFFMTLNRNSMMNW

[26] = target: Calcium/calmodulin-dependent protein kinase type II subunit beta (Homo sapiens) (UniProt Q13554); settings: Compound concentration 1000.0 nM
[27] = target: Serine/threonine-protein kinase D2 (Homo sapiens) (UniProt Q9BZL6); settings: Compound concentration 1000.0 nM
[28] = target: Serine/threonine-protein kinase VRK2 (Homo sapiens) (UniProt Q86Y07); settings: Compound concentration 1000.0 nM
Sequence of Serine/threonine-protein kinase VRK2 (Homo sapiens) (Q86Y07 whole entry): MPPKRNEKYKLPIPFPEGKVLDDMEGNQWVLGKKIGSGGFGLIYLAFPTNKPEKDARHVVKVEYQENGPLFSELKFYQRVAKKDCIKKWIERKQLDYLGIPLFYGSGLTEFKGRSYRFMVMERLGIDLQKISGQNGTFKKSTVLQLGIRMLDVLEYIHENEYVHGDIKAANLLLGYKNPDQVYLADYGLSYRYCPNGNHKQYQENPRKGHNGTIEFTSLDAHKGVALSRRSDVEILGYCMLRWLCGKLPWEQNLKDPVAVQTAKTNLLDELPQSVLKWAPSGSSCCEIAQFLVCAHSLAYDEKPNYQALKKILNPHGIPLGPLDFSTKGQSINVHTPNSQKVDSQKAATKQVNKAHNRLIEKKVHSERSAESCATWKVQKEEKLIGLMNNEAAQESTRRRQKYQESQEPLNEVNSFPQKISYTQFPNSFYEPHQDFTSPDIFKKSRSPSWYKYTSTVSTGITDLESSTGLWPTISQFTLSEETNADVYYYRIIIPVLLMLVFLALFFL

[29] = target: Cyclin-G-associated kinase (Homo sapiens) (UniProt O14976); settings: Compound concentration 1000.0 nM
Sequence of Cyclin-G-associated kinase (Homo sapiens) (O14976 whole entry): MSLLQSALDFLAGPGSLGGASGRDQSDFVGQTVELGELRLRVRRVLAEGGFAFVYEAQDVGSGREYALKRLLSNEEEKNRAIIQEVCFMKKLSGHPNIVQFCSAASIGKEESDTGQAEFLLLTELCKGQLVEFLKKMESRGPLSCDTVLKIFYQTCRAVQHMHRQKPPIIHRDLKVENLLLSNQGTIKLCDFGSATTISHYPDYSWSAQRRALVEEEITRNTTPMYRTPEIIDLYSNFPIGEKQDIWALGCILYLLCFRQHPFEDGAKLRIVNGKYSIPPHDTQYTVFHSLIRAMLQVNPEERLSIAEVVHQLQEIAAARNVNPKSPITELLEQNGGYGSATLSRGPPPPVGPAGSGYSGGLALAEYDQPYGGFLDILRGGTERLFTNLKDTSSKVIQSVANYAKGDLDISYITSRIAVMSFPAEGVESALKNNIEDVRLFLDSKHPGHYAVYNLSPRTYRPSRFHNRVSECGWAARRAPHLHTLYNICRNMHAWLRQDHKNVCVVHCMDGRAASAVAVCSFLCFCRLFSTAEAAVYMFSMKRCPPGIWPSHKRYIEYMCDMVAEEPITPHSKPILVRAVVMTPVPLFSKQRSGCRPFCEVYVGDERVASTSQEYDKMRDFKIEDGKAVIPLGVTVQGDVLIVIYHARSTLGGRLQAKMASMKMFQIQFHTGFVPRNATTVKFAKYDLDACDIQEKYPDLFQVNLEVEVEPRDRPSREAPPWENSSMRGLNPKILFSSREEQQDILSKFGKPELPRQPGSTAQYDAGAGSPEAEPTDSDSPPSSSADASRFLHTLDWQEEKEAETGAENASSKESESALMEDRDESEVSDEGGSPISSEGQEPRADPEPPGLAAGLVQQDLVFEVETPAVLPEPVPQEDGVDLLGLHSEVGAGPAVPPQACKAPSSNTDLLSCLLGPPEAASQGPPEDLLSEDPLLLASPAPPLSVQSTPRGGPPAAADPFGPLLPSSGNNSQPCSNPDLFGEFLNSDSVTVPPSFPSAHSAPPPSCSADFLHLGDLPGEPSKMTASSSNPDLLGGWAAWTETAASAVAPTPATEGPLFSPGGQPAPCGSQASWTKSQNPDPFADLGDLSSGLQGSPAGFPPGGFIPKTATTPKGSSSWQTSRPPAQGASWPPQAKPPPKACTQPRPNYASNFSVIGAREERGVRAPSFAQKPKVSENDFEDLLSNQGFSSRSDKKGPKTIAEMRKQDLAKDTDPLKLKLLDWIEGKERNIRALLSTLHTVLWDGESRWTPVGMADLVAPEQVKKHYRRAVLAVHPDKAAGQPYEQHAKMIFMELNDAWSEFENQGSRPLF

[30] = tested on: Tyrosine-protein kinase ABL1 (Homo sapiens), P00519 [F317I]; settings: Compound concentration 1000.0 nM
[31] = target: Phosphatidylinositol 4,5-bisphosphate 3-kinase catalytic subunit alpha isoform (Homo sapiens) (UniProt P42336); settings: Compound concentration 1000.0 nM
[32] = target: Myosin-IIIa (Homo sapiens) (UniProt Q8NEV4); settings: Compound concentration 1000.0 nM
[33] = target: Rhodopsin kinase GRK1 (Homo sapiens) (UniProt Q15835); settings: Compound concentration 1000.0 nM
[34] = target: Cyclin-dependent kinase 5 (Homo sapiens) (UniProt Q00535); settings: Compound concentration 1000.0 nM
[35] = target: Serine/threonine-protein kinase NIM1 (Homo sapiens) (UniProt Q8IY84); settings: Compound concentration 1000.0 nM
[36] = target: RAC-gamma serine/threonine-protein kinase (Homo sapiens) (UniProt Q9Y243); settings: Compound concentration 1000.0 nM
[37] = target: Serine/threonine-protein kinase RIO3 (Homo sapiens) (UniProt O14730); settings: Compound concentration 1000.0 nM
[38] = target: Activin receptor type-2A (Homo sapiens) (UniProt P27037); settings: Compound concentration 1000.0 nM

O=C(Nc1ccc(Oc2ccc(F)cc2)cc1)N1CCc2ncccc2[C@H]1c1ccc(F)cc1 [BAY-897]
inactive: residual activity [1] 100% | inhibition [2] 15.9% | residual activity [3] 100% | residual activity [4] 97% | residual activity [5] 92% | residual activity [6] 82% | residual activity [7] 100% | residual activity [8] 98% | inhibition [9] -2.98% | residual activity [10] 79% | residual activity [11] 100% | residual activity [12] 76% | residual activity [13] 89% | residual activity [14] 98% | residual activity [15] 100% | residual activity [16] 88% | residual activity [17] 100% | residual activity [18] 100% | inhibition [19] 7.29% | residual activity [20] 91% | residual activity [21] 82% | residual activity [22] 95% | residual activity [23] 77% | inhibition [24] 29.1% | inhibition (Rattus norvegicus) 33.4% | residual activity [25] 100% | residual activity [26] 100% | residual activity [27] 100% | residual activity [28] 97% | residual activity [29] 89% | residual activity [30] 100% | residual activity [31] 83% | residual activity [32] 100% | residual activity [33] 91% | residual activity [34] 100% | residual activity [35] 80% | residual activity [36] 95% | residual activity [37] 96% | residual activity [38] 100%

O=C(Nc1cnc(Oc2ccc(F)cc2)nc1)N1CCc2ncccc2[C@@H]1c1ccc(F)cc1 [BAY-899]
inactive: residual activity [1] 100% | inhibition [2] 5.89% | residual activity [3] 94% | residual activity [4] 91% | residual activity [5] 100% | residual activity [6] 88% | residual activity [7] 100% | residual activity [8] 100% | inhibition [9] 7.56% | residual activity [10] 96% | residual activity [11] 100% | residual activity [12] 83% | residual activity [13] 91% | residual activity [14] 96% | residual activity [15] 99% | residual activity [16] 76% | residual activity [17] 90% | residual activity [18] 100% | inhibition [19] 2.75% | residual activity [20] 87% | residual activity [21] 77% | residual activity [22] 82% | residual activity [23] 84% | inhibition [24] 10.1% | inhibition (Rattus norvegicus) 44.6% | residual activity [25] 100% | residual activity [26] 92% | residual activity [27] 85% | residual activity [28] 100% | residual activity [29] 94% | residual activity [30] 100% | residual activity [31] 100% | residual activity [32] 100% | residual activity [33] 91% | residual activity [34] 100% | residual activity [35] 90% | residual activity [36] 78% | residual activity [37] 89% | residual activity [38] 83%
